Results reported in patent US20250064805A1, “Methods of Treating Myeloproliferative Disorders Based on BTK Occupancy & Resynthesis Rate” (Telios Pharma Inc., priority 2022, published 2025).

Experiments:
[1] = Half-life of Compound 128 in vivo
Experimental: In myeloproliferative disorders, the de novo resynthesis rate of BTK following covalent inhibition by Compound 128 is greater than the de novo BTK resynthesis rate in B-cell malignancies. […] The short half-life of Compound 128 (1 to 2 hours in vivo), coupled with the faster BTK turnover in myelofibrosis in particular, and myeloproliferative disorders in general, requires higher BID dosing. Thus, a 300 mg BID dose in subjects with myelofibrosis should ensure maximal BTK occupancy at trough levels of this drug.

[2] = target: T1, BTK (Homo sapiens, UniProt Q06187); assay: BTK resynthesis rate in cells after saturating exposure to and washout of Compound 128 (free BTK by ELISA); format: cell-based
T1 construct: endogenous in cells; host or cells: RAMOS B cells, HEL-92, MV-411, MOLM-13, THP-1, UKE-1, primary myeloid cells/monocytes from a healthy donor, primary cells from AML patients
Experimental: Various cell types and tissues show different rates of BTK synthesis (see FIG. 1). Cells were cultured with a saturating concentration of Compound 128 to occupy all BTK protein (0% free BTK). This was followed by a washout of Compound 128 and culturing for up to 48 hours with no BTK inhibitor to allow the cells to synthesize new BTK protein. The rate of BTK protein synthesis was determined by measuring the free BTK by ELISA at different time points. RAMOS B cells resynthesized BTK at a rate of only 26% per day, while Hel-92 and MV-411 cells resynthesized BTK at a rate of over 100% per day. […] The rate of BTK resynthesis in naïve AML patients was roughly 30% per day, with low inter-patient variability.
BTK resynthesis in each cell type was measured as described in Example 1. The left graph (see FIG. 2) depicts the BTK resynthesis rate in monocytes from a normal individual following a two hour exposure to Compound 128. The BTK resynthesis rate was determined to be 61% per day in normal monocytes. The right graph (see FIG. 2) depicts the BTK resynthesis rate in the presence of BTK inhibitor Compound 128 in two different cell lines.
BTK resynthesis was measured in additional AML and MF cell types as described in Example 1 following a one hour exposure to Compound 128 (see FIG. 3). MOLM-13 cells resynthesized BTK at a rate of only 21% per day, while THP-1 cells resynthesized BTK at a rate of 84% per day and UKE-1 cells resynthesized BTK at a rate of over 100% per day.

T1 sequence (Q06187 whole entry): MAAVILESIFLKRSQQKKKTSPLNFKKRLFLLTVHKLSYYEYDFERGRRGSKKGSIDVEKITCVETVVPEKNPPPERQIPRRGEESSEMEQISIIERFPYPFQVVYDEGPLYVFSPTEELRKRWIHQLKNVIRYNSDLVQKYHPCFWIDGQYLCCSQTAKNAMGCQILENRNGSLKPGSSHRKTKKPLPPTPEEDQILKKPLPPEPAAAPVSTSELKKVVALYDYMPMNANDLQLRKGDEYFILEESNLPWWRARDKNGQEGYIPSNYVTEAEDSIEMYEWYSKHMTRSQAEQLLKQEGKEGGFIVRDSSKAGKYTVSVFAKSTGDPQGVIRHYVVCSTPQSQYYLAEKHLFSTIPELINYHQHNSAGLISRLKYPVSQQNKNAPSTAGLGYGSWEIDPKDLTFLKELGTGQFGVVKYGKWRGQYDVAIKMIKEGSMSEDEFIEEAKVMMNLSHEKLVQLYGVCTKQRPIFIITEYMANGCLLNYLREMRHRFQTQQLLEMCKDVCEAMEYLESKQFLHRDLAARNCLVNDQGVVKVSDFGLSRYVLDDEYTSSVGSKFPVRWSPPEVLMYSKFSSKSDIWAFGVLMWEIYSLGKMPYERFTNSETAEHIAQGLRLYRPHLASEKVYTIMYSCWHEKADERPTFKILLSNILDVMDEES

C=CC(=O)N1CCC(F)(CNc2ncnc(N)c2-c2ccc(Oc3ccccc3)cc2)CC1 [Compound 128, 1-(4-(((6-amino-5-(4-phenoxyphenyl)pyrimidin-4-yl)amino)methyl)-4-fluoropiperidin-1-yl)prop-2-en-1-one]
half-life [1]: 60 to 120 min
initial BTK resynthesis rate ([2]; HEL-92 (myelofibrosis) cells): 43 % per day
BTK resynthesis rate after repeated exposure ([2]; HEL-92 (myelofibrosis) cells, repeated exposure): 28 % per day
change of BTK resynthesis rate after treatment ([2]; Hel-92 cells, after 4 days of treatment): decreased BTK resynthesis rate
BTK resynthesis rate ([2]; Hel-92 cells, saturating concentration, washout, culture up to 48 hours): over 100 % per day
BTK resynthesis rate ([2]; MOLM-13 cells, one hour exposure): 21 % per day
BTK resynthesis rate after continued exposure ([2]; MV-411 cells (AML), continued exposure for seven days): 44 % per day
initial BTK resynthesis rate ([2]; MV-411 cells (AML)): 83 % per day
change of BTK resynthesis rate after treatment ([2]; MV-411 cells, after 7 days of treatment): decreased BTK resynthesis rate
BTK resynthesis rate ([2]; MV-411 cells, saturating concentration, washout, culture up to 48 hours): over 100 % per day
BTK resynthesis rate ([2]; RAMOS B cells, saturating concentration, washout, culture up to 48 hours): 26 % per day
BTK resynthesis rate ([2]; THP-1 cells, one hour exposure): 84 % per day
BTK resynthesis rate ([2]; UKE-1 cells, one hour exposure): over 100 % per day
BTK resynthesis rate ([2]; culture of primary myeloid cells from a healthy donor): 67 % per day
BTK resynthesis rate ([2]; cultures of primary cells from patients with relapsed AML): 57 % per day
de novo BTK resynthesis rate, HEL-92 cells compared to Ramos B-lymphoblastoid cell line ([2]; following covalent inhibition by Compound 128): four-fold higher
BTK resynthesis rate ([2]; monocytes from a normal individual, two hour exposure): 61 % per day
BTK resynthesis rate ([2]; naïve AML patients): roughly 30 % per day
